Reference: patent US20260217670A1, “CRYSTAL FORM OF BAXDROSTAT, AND PREPARATION METHOD THEREFOR AND USE THEREOF” (CRYSTAL PHARMACEUTICAL (SUZHOU) CO., LTD., priority 2023, published 2026)

How the values were obtained:
Assay type in all cases: physicochemical
[1] = Storage stability of Form CSI, purity by HPLC and crystalline form by XRPD
Description: (§1) XRPD patterns in the present disclosure were acquired by a Bruker D8 DISCOVER X-ray powder diffractometer. The parameters of the X-ray powder diffraction method of the present disclosure are as follows: • X-Ray source: Cu, Kα • Kα1 (Å): 1.54060; Kα2 (Å): 1.54439 • Kα2/Kα1 intensity ratio: 0.50 • Voltage: 40 kV • Current: 40 mA • Scan range (20): from 4.0 degree to 40.0 degree
A certain amount of Form CSI prepared by the present disclosure was stored under conditions of 25° C./60% RH, 40° C./75% RH and 60° C./75% RH. The purity and crystalline form were checked by HPLC and XRPD. The results are listed in Table 3, and the XRPD overlay is substantially as depicted in FIG. 7 and FIG. 8. […] Under 60° C./75% RH, it remains stable for at least 1 month with its purity also essentially unchanged, indicating very good stability even under stress conditions.

[2] = Wet ball milling (grinding stability); settings: for Solid form after grinding: wet ball milling, 1800 rpm for 10 min
Description: as §1
A certain amount of Form CSI solid was placed in a centrifuge tube, and about 10 μL of corresponding solvent was added inside, along with a 5 mm grinding ball. The centrifuge tube containing the sample was installed on the GT300 vibration ball mill and subjected to wet ball milling at 1800 rpm for 10 min.

[3] = DVS weight gain at various humidity (hygroscopicity / humidity stability)
Description: Purge gas: N2DVS data in the present disclosure were measured via an SMS (Surface Measurement Systems Ltd.) intrinsic DVS instrument. The instrument control software is DVS-Intrinsic control software. Typical parameters for DVS test are as follows: • Temperature: 25° C. • Gas and flow rate: N2, 200 mL/min • RH range: 0% RH to 95% RH
A certain amount of Form CSI was used to test the weight gain at various humidity by a DVS instrument. The weight gains at each relative humidity were recorded in a cycle of 60% RH-95% RH-0% RH-95% RH-0% RH. […] The XRPD overlay before and after DVS test is substantially as depicted in FIG. 11.

[4] = 25° C./60% RH, Open package, 6 months
[5] = 25° C./60% RH, Sealed package, 6 months
[6] = 40° C./75% RH, Open package, 6 months
[7] = 40° C./75% RH, Sealed package, 6 months
[8] = 60° C./75% RH, Open package, 1 month
[9] = 60° C./75% RH, Sealed package, 1 month
[10] = wet ball milling at 1800 rpm for 10 min, water or ethanol

SMILES: CCC(=O)N[C@@H]1CCCc2c(-c3ccc4c(c3)CCC(=O)N4C)cncc21 [Form CSI, (+)-(R)—N-(4-(1-methyl-2-oxo-1,2,3,4-tetrahydroquinolin-6-yl)-5,6,7,8-tetrahydroisoquinolin-8-yl) propionamide]
- Time Form CSI remains stable with purity essentially unchanged ([1]; 25° C./60% RH): at least 6 months
- Purity [1, 4]: 99.27%
- Solid form [1, 4]: Form CSI
- Purity [1, 5]: 99.22%
- Solid form [1, 5]: Form CSI
- Time Form CSI remains stable with purity essentially unchanged ([1]; 40° C./75% RH): at least 6 months
- Purity [1, 6]: 99.26%
- Solid form [1, 6]: Form CSI
- Purity [1, 7]: 99.21%
- Solid form [1, 7]: Form CSI
- Time Form CSI remains stable with purity essentially unchanged ([1]; 60° C./75% RH): at least 1 month
- Purity [1, 8]: 99.26%
- Solid form [1, 8]: Form CSI
- Purity [1, 9]: 99.24%
- Solid form [1, 9]: Form CSI
- Purity ([1]; Initial): 99.23%
- Solid form ([1]; Initial): Form CSI
- Crystalline form before and after wet ball milling [2, 10]: remains unchanged
- Crystallinity after wet ball milling [2, 10]: no significant decrease
- Solid form after grinding ([2]; Ethanol): Form CSI
- Solid form after grinding ([2]; Water): Form CSI
- Form change before and after DVS test (XRPD) ([3]; cycle of 60% RH-95% RH-0% RH-95% RH-0% RH): No form change
- Weight gain ([3]; from 60% RH to 80% RH, DVS, 25° C.): 0.34%
